Literature values in US20250387447A1, “Herbal composition for use in the improvement of physical and mental health recovery and maintenance, including the improvement of cognitive function or prevention of cognitive decline” (Conka Elite Ltd, priority 2022, published 2025).

Test system: neurons

For `COc1cc(/C=C/C(=O)CC(=O)/C=C/c2ccc(O)c(OC)c2)ccc1O` [curcumin], the “neuron death caused by oxygen-glucose deprivation” value is given as “protects neurons from death” and the expression of thioredoxin (Nrf2 pathway) is given as “activate the expression of thioredoxin”.
